Test results taken from ChEMBL document CHEMBL1201861, “Genomics of Drug Sensitity in Cancer screening data, Wellcome Trust Sanger Institute”.

How the values were obtained:
Assay in all cases: cells
K5 = assay type: functional, cell-based, Homo sapiens; conditions: Homo sapiens, K5
TGBC1TKB = assay type: functional, cell-based, Homo sapiens; conditions: Homo sapiens, TGBC1TKB;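 note: growth inhibition of TGBC1TKB cells, read out by a cell viability assay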
Description: SANGER: Inhibition of human TGBC1TKB cell growth in a cell viability assay.

KMOE-2 = assay type: functional, cell-based; conditions: Homo sapiens;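 note: growth inhibition of human KMOE-2 cells, read out with a cell viability assay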
Description: SANGER: Inhibition of human KMOE-2 cell growth in a cell viability assay.

NCI-H2126 = assay type: functional, cell-based, Homo sapiens; conditions: Homo sapiens, NCI-H2126;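 note: growth inhibition of the cancer cell line, determined with a cell viability readout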
Description: SANGER: Inhibition of human NCI-H2126 cell growth in a cell viability assay.

DB = assay type: functional, cell-based; conditions: Homo sapiens
Description: SANGER: Inhibition of human DB cell growth in a cell viability assay.

NCI-H747 = assay type: functional, cell-based; conditions: Homo sapiens;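 note: growth inhibition of human NCI-H747 cells, read out by a cell viability assay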
A4-Fuk = assay type: functional, cell-based; conditions: Homo sapiens;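 note: growth inhibition of A4-Fuk cells, read out by a cell viability assay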
Description: SANGER: Inhibition of human A4-Fuk cell growth in a cell viability assay.

HT = assay type: functional, cell-based; conditions: Homo sapiens
Description: SANGER: Inhibition of human HT cell growth in a cell viability assay.

ATN-1 = assay type: functional, cell-based; conditions: Homo sapiens;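 note: growth inhibition of human ATN-1 cells, read out with a cell viability assay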
Description: SANGER: Inhibition of human ATN-1 cell growth in a cell viability assay.

D-392MG = assay type: functional, cell-based, Homo sapiens; conditions: Homo sapiens, D-392MG
SCH = assay type: functional, cell-based, Homo sapiens; conditions: Homo sapiens, SCH;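 note: growth inhibition of human SCH cells, read out in a cell viability assay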
Description: SANGER: Inhibition of human SCH cell growth in a cell viability assay.

LXF-289 cell line = assay type: functional, cell-based, Homo sapiens; conditions: Homo sapiens, LXF-289
Description: SANGER: Inhibition of human LXF-289 cell growth in a cell viability assay.

LNCaP-Clone-FGC = assay type: functional, cell-based, Homo sapiens; conditions: Homo sapiens, LNCaP-Clone-FGC
TE-12 = assay type: functional, cell-based; conditions: Homo sapiens;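 note: growth inhibition of TE-12 cells, read out by a cell viability assay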
Description: SANGER: Inhibition of human TE-12 cell growth in a cell viability assay.

LB2241-RCC = assay type: functional, cell-based, Homo sapiens; conditions: Homo sapiens, LB2241-RCC;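 note: cell viability assay measuring how strongly the cultured human renal carcinoma line is prevented from growing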
Description: SANGER: Inhibition of human LB2241-RCC cell growth in a cell viability assay.

Lu-65 = assay type: functional, cell-based; conditions: Homo sapiens;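 note: growth inhibition of Lu-65 cancer cells, read out by a cell viability assay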
Description: SANGER: Inhibition of human LU-65 cell growth in a cell viability assay.

LU-139 = assay type: functional, cell-based; conditions: Homo sapiens
Description: SANGER: Inhibition of human LU-139 cell growth in a cell viability assay.

NCI-H526 = assay type: functional, cell-based; conditions: Homo sapiens;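 note: growth inhibition of the human NCI-H526 cell line, measured by a cell viability assay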
Description: SANGER: Inhibition of human NCI-H526 cell growth in a cell viability assay.

ES4 = assay type: functional, cell-based, Homo sapiens; conditions: Homo sapiens, ES4;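 note: growth inhibition of human ES4 cells, read out by a cell viability assay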
Description: SANGER: Inhibition of human ES4 cell growth in a cell viability assay.

HC-1 = assay type: functional, cell-based; conditions: Homo sapiens;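 note: growth inhibition of HC-1 cells measured by a cell viability assay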
Description: SANGER: Inhibition of human HC-1 cell growth in a cell viability assay.

KALS-1 = assay type: functional, cell-based, Homo sapiens; conditions: Homo sapiens, KALS-1;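 note: growth inhibition of KALS-1 cells, determined with a cell viability assay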
TGBC24TKB = assay type: functional, cell-based, Homo sapiens; conditions: Homo sapiens, TGBC24TKB;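 note: growth inhibition of human TGBC24TKB cells, read out with a cell viability assay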
Description: SANGER: Inhibition of human TGBC24TKB cell growth in a cell viability assay.

IA-LM = assay type: functional, cell-based, Homo sapiens; conditions: Homo sapiens, IA-LM;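 note: cell viability assay measuring growth inhibition of human IA-LM cells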
Description: SANGER: Inhibition of human IA-LM cell growth in a cell viability assay.

SW982 = assay type: functional, cell-based; conditions: Homo sapiens;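 note: growth inhibition of SW982 cells, read out with a cell viability assay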
Description: SANGER: Inhibition of human SW982 cell growth in a cell viability assay.

SMILES | IC50 (K5) | IC50 (TGBC1TKB) | IC50 (KMOE-2) | IC50 (NCI-H2126) | IC50 (DB) | IC50 (NCI-H747) | IC50 (A4-Fuk) | IC50 (HT) | IC50 (ATN-1) | IC50 (SCH) | IC50 (LXF-289 cell line) | IC50 (LNCaP-Clone-FGC) | IC50 (TE-12) | IC50 (LB2241-RCC) | IC50 (Lu-65) | IC50 (LU-139) | IC50 (NCI-H526) | IC50 (ES4) | IC50 (HC-1) | IC50 (KALS-1) | further results
C=C1C(=O)O[C@@H]2C3O[C@]3(C)CC/C=C(\C)CC[C@@H]12 (stereo partly specified) | > 5000 nM | > 5000 nM | > 5000 nM | > 5000 nM | > 5000 nM | > 5000 nM | > 5000 nM | > 5000 nM | > 5000 nM | > 5000 nM | > 5000 nM | > 5000 nM | > 5000 nM | > 5000 nM | > 5000 nM | > 5000 nM | > 5000 nM | > 5000 nM | > 5000 nM | > 5000 nM | IC50 (D-392MG): > 5000 nM
CC1=C2C[C@H]3[C@@H](CC=C4C[C@@H](O)CC[C@@]43C)[C@@H]2CC[C@]12O[C@@H]1C[C@H](C)CN[C@H]1[C@H]2C [CYCLOPAMINE] | > 16000 nM | > 16000 nM | > 16000 nM | > 16000 nM | > 16000 nM | > 16000 nM | > 16000 nM | > 16000 nM | > 16000 nM | > 16000 nM | > 16000 nM | > 16000 nM | > 16000 nM | > 16000 nM | > 16000 nM | > 16000 nM | > 16000 nM | > 16000 nM | > 16000 nM | > 16000 nM | IC50 (D-392MG): > 16000 nM
CS(=O)(=O)CCNCc1ccc(-c2ccc3ncnc(Nc4ccc(OCc5cccc(F)c5)c(Cl)c4)c3c2)o1 [LAPATINIB] | > 2000 nM | > 2000 nM | > 2000 nM | > 2000 nM | > 2000 nM | > 2000 nM | > 2000 nM | > 2000 nM | > 2000 nM | > 2000 nM | > 2000 nM | > 2000 nM | 491 nM | 1150 nM | > 2000 nM | > 2000 nM | > 2000 nM | > 2000 nM | > 2000 nM | > 2000 nM | IC50 (D-392MG): > 2000 nM
CCc1nc(N)nc(N)c1-c1ccc(Cl)cc1 [PYRIMETHAMINE] | > 20000 nM | > 20000 nM | > 20000 nM | > 20000 nM | > 20000 nM | > 20000 nM | 15800 nM | > 20000 nM | 1780 nM | 16900 nM | > 20000 nM | > 20000 nM | > 20000 nM | > 20000 nM | 11000 nM | 11100 nM | 7920 nM | 3120 nM | 5650 nM | 12000 nM | IC50 (D-392MG): > 20000 nM
O=C(/C=C/c1ccccc1)NC(NC(=S)Nc1cccc2cccnc12)C(Cl)(Cl)Cl (stereo unspecified) [SALUBRINAL] | > 16000 nM | > 16000 nM | 13100 nM | > 16000 nM | > 16000 nM | > 16000 nM | 14100 nM | 8940 nM | 12000 nM | > 16000 nM | 11200 nM | > 16000 nM | 11300 nM | 4990 nM | > 16000 nM | 14000 nM | > 16000 nM | > 16000 nM | 11200 nM | > 16000 nM | IC50 (D-392MG): > 16000 nM
CN1CCN(CCOc2cc(OC3CCOCC3)c3c(Nc4c(Cl)ccc5c4OCO5)ncnc3c2)CC1 [SARACATINIB] | > 2000 nM | > 2000 nM | > 2000 nM | > 2000 nM | > 2000 nM | > 2000 nM | > 2000 nM | > 2000 nM | > 2000 nM | – | > 2000 nM | > 2000 nM | 327 nM | > 2000 nM | > 2000 nM | > 2000 nM | > 2000 nM | > 2000 nM | > 2000 nM | 1990 nM | IC50 (TGBC24TKB): > 2000 nM; IC50 (IA-LM): > 2000 nM; IC50 (SW982): 1920 nM
CO[C@H]1C[C@@H]2CC[C@@H](C)[C@@](O)(O2)C(=O)C(=O)N2CCCC[C@H]2C(=O)O[C@H]([C@H](C)C[C@@H]2CC[C@@H](O)[C@H](OC)C2)CC(=O)[C@H](C)/C=C(\C)[C@@H](O)[C@@H](OC)C(=O)[C@H](C)C[C@H](C)/C=C/C=C/C=C/1C [SIROLIMUS] | > 100 nM | 2.69 nM | > 100 nM | > 100 nM | > 100 nM | > 100 nM | 13.1 nM | 17.6 nM | > 100 nM | – | > 100 nM | > 100 nM | > 100 nM | > 100 nM | > 100 nM | > 100 nM | 93.6 nM | < 0.391 nM | > 100 nM | 6.56 nM | IC50 (TGBC24TKB): 5.51 nM; IC50 (IA-LM): 68.1 nM; IC50 (SW982): > 100 nM
CNC(=O)c1cc(Oc2ccc(NC(=O)Nc3ccc(Cl)c(C(F)(F)F)c3)cc2)ccn1 [SORAFENIB] | > 4000 nM | > 4000 nM | 2810 nM | > 4000 nM | > 4000 nM | > 4000 nM | > 4000 nM | > 4000 nM | > 4000 nM | > 4000 nM | > 4000 nM | > 4000 nM | > 4000 nM | > 4000 nM | > 4000 nM | > 4000 nM | > 4000 nM | > 4000 nM | > 4000 nM | > 4000 nM | IC50 (D-392MG): > 4000 nM
CCC(=O)N1CCN(c2ccc(-n3c(=O)ccc4cnc5ccc(-c6cnc7ccccc7c6)cc5c43)cc2C(F)(F)F)CC1 [TORIN1] | 64 nM | 3.79 nM | 275 nM | 114 nM | 501 nM | 23.3 nM | 13.2 nM | 80 nM | 27.9 nM | 140 nM | 28.7 nM | > 1200 nM | 25.5 nM | > 1200 nM | > 1200 nM | 130 nM | 910 nM | 83 nM | 58.3 nM | 12 nM | IC50 (TGBC24TKB): 58 nM; IC50 (IA-LM): 29.2 nM; IC50 (SW982): 42.5 nM
Cc1cc(Nc2cc(N3CCN(C)CC3)nc(Sc3ccc(NC(=O)C4CC4)cc3)n2)n[nH]1 [TOZASERTIB] | > 2000 nM | > 2000 nM | > 2000 nM | > 2000 nM | > 2000 nM | > 2000 nM | 116 nM | > 2000 nM | > 2000 nM | > 2000 nM | 404 nM | > 2000 nM | > 2000 nM | > 2000 nM | > 2000 nM | > 2000 nM | > 2000 nM | 911 nM | > 2000 nM | > 2000 nM | IC50 (TGBC24TKB): 864 nM; IC50 (IA-LM): > 2000 nM; IC50 (SW982): 214 nM
